Results reported in article PMC10174618, “Monoterpenoid aryl hydrocarbon receptor allosteric antagonists protect against ultraviolet skin damage in female mice” (Nature Communications, 2023).

Experiments:
Assay in all cases: biochemical
Design in all cases: KINOMEscan scanMAX active site-directed competition binding assay, percent of control, 468 kinases
Details in all cases: competition binding, percent of control
LRRK2 = LRRK2 (Homo sapiens, UniProt Q5S007)
Method in brief: (§1)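 KINOMEscan active site-directed competition binding assay against 468 human kinases with 100 μM S-carvone. Binding expressed as % of control, with 35% of control as the inhibition threshold.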

PIK3CB = PIK3CB (Homo sapiens, UniProt P42338)
Method in brief: as §1

EPHB4 = EPHB4 (Homo sapiens, UniProt P54760)
Method in brief: as §1

[1] = target: T1, RSK1(Kin.Dom.2-C-terminal) (Homo sapiens, UniProt Q15418)
T1 construct: gene RPS6KA1; Kin.Dom.2-C-terminal
Method in brief: as §1

HUNK = HUNK (Homo sapiens, UniProt P57058)
Method in brief: as §1

EPHB1 = EPHB1 (Homo sapiens, UniProt P54762)
Method in brief: as §1

EGFR = EGFR (Homo sapiens, UniProt P00533)
Method in brief: as §1

EPHB6 = EPHB6 (Homo sapiens, UniProt O15197)
Method in brief: as §1

BMX = BMX (Homo sapiens, UniProt P51813)
Method in brief: as §1

PRKCH = PRKCH (Homo sapiens, UniProt P24723)
Method in brief: as §1

[2] = target: T2, RSK3(Kin.Dom.1-N-terminal) (Homo sapiens, UniProt Q15349)
T2 construct: gene RPS6KA2; Kin.Dom.1-N-terminal
Method in brief: as §1

PRKD2 = PRKD2 (Homo sapiens, UniProt Q9BZL6)
Method in brief: as §1

[3] = target: T3, ABL1(H396P)-phosphorylated (Homo sapiens, UniProt P00519, H396P)
T3 construct: phosphorylated
Method in brief: as §1

ACVR2A = ACVR2A (Homo sapiens, UniProt P27037)
Method in brief: as §1

FLT3(D835H) = FLT3(D835H) (Homo sapiens, UniProt P36888, D835H)
Method in brief: as §1

EGFR(E746-A750del) = EGFR(E746-A750del) (Homo sapiens, UniProt P00533, DEL746-750)
Method in brief: as §1

MERTK = MERTK (Homo sapiens, UniProt Q12866)
Method in brief: as §1

MYLK = MYLK (Homo sapiens, UniProt Q15746)
Method in brief: as §1

DAPK3 = DAPK3 (Homo sapiens, UniProt O43293)
Method in brief: as §1

MYO3A = MYO3A (Homo sapiens, UniProt Q8NEV4)
Method in brief: as §1

EIF2AK1 = EIF2AK1 (Homo sapiens, UniProt Q9BQI3)
Method in brief: as §1

T2 sequence (Q15349 whole entry): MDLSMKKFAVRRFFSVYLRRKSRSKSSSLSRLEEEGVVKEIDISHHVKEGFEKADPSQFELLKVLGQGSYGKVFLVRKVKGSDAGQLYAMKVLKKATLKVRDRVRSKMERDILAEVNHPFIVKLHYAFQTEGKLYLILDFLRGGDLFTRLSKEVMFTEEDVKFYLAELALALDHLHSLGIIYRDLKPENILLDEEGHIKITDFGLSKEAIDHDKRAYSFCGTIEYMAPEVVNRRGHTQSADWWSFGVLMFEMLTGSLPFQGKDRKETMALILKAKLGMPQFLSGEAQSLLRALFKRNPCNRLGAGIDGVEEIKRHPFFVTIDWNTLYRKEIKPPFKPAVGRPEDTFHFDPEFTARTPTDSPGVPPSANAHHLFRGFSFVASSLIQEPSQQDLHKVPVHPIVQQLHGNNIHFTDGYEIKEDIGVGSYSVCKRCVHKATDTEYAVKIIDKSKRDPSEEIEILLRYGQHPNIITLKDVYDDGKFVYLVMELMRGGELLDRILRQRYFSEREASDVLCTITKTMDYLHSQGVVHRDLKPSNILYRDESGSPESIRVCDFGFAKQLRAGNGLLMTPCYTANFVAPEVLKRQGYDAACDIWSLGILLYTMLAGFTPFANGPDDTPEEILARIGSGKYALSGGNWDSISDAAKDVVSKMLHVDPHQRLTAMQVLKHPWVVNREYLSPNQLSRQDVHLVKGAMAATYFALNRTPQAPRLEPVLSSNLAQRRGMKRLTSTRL
Sequence of EGFR(E746-A750del) (P00533 with tags, fused parts or gaps DEL746-750): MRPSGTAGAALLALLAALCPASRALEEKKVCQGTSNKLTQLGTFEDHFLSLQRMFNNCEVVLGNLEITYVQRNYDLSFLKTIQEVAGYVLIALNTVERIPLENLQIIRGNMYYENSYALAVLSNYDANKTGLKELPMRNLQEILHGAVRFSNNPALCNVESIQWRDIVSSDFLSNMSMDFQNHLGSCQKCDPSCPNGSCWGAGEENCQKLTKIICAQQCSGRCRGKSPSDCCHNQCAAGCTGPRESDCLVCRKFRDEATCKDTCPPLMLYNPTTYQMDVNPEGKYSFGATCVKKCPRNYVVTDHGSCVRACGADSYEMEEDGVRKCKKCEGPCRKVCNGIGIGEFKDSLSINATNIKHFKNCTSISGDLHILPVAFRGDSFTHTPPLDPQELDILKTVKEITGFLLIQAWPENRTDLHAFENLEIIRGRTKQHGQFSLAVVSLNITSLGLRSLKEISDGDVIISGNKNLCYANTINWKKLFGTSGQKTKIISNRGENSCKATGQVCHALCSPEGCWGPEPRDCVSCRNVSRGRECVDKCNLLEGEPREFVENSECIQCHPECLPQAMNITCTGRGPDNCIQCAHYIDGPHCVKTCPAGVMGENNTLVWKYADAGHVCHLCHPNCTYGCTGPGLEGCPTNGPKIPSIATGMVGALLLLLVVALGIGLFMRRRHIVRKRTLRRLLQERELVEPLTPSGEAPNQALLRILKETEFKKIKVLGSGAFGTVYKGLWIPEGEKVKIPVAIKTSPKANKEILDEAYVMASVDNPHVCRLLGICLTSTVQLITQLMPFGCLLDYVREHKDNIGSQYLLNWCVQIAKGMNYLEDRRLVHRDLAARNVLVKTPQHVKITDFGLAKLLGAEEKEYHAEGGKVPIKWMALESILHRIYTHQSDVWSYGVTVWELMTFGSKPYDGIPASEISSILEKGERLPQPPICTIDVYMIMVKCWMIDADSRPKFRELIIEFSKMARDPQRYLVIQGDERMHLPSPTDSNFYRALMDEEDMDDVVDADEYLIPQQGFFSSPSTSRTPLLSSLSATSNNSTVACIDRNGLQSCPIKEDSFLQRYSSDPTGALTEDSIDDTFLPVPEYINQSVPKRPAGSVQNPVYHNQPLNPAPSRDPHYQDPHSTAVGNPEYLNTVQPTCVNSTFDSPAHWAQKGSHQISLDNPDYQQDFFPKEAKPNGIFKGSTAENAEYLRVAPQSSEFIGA
Sequence of EPHB6 (O15197 whole entry): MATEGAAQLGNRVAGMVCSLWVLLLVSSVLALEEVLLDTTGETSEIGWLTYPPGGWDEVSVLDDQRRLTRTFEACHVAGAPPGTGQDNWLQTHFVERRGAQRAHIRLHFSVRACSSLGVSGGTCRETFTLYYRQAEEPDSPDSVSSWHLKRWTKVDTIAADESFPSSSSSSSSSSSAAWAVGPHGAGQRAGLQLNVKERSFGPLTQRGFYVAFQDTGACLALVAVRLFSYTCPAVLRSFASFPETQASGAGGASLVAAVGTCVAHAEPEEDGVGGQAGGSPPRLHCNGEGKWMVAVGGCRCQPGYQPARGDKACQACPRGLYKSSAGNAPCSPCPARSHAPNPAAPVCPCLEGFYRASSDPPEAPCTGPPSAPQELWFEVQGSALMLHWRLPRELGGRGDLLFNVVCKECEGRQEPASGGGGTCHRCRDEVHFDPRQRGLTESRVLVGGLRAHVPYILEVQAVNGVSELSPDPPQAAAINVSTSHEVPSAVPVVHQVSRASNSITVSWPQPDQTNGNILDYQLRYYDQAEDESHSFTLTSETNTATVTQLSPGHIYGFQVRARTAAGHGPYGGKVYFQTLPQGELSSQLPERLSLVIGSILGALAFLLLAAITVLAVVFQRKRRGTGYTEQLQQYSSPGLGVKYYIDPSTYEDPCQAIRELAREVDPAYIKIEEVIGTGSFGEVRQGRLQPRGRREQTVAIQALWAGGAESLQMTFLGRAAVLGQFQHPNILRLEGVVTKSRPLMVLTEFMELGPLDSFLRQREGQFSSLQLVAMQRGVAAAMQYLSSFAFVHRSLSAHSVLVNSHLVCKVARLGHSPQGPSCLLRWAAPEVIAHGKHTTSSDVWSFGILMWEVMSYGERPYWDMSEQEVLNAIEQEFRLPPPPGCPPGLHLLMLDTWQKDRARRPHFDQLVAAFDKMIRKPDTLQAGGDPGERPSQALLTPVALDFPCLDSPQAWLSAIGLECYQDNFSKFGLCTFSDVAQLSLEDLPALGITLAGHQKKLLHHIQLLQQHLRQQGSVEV
Sequence of MYLK (Q15746 whole entry): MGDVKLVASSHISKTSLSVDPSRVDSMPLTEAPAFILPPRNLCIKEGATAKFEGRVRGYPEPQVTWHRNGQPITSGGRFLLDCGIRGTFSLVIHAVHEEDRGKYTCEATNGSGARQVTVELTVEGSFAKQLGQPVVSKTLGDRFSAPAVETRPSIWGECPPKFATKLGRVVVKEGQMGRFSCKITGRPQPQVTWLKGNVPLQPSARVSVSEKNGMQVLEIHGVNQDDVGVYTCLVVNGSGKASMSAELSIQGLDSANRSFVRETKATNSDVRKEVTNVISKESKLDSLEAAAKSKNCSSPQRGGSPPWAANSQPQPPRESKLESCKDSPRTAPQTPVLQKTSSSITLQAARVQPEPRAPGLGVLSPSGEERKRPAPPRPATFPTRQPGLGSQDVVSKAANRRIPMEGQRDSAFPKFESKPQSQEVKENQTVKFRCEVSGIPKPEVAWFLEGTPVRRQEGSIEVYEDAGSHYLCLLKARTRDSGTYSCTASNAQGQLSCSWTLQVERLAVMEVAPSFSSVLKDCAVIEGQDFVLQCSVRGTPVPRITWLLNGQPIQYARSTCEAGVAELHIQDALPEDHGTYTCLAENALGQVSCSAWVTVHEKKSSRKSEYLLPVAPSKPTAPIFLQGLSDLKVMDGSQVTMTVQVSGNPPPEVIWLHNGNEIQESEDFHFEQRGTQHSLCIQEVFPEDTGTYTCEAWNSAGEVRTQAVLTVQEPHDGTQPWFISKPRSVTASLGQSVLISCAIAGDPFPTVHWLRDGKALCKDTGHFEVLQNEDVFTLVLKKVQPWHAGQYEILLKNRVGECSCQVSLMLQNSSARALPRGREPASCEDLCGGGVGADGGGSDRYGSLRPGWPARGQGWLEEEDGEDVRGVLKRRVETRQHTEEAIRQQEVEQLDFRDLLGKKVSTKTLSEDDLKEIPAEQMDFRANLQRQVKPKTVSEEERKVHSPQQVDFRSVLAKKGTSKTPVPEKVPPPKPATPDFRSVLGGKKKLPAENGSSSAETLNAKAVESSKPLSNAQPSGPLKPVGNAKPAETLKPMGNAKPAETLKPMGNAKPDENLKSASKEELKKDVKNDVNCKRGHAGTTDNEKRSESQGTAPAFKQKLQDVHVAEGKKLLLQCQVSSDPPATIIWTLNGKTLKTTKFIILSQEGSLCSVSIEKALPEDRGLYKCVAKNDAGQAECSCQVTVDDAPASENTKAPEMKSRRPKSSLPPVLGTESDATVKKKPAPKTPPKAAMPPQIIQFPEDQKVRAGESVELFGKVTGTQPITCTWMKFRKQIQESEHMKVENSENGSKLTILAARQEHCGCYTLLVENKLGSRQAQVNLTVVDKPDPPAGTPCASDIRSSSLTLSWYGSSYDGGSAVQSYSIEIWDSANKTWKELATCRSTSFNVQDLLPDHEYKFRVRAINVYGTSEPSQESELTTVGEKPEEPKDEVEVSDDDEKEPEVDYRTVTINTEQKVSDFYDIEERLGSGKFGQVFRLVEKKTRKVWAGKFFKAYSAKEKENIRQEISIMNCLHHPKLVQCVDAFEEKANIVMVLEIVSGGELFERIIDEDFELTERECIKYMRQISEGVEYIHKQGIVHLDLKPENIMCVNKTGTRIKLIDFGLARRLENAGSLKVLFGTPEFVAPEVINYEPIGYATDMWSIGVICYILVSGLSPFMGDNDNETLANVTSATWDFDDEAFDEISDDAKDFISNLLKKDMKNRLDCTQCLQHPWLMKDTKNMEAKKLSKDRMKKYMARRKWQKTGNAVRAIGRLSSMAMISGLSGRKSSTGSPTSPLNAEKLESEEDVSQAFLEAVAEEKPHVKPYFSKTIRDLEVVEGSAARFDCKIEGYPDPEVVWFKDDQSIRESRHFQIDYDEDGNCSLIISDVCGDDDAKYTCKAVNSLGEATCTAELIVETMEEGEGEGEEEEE

## C=C(C)[C@H]1CC=C(C)C(=O)C1 [S-carvone]
LRRK2
  remaining binding at 100 µM: 100%
PIK3CB
  remaining binding at 100 µM: 88%
EPHB4
  remaining binding at 100 µM: 68%
[1]
  remaining binding at 100 µM: 54%
HUNK
  remaining binding at 100 µM: 63%
EPHB1
  remaining binding at 100 µM: 88%
EGFR
  remaining binding at 100 µM: 79%
EPHB6
  remaining binding at 100 µM: 51%
BMX
  remaining binding at 100 µM: 67%
PRKCH
  remaining binding at 100 µM: 73%
[2]
  remaining binding at 100 µM: 94%
PRKD2
  remaining binding at 100 µM: 100%
[3]
  remaining binding at 100 µM: 65%
ACVR2A
  remaining binding at 100 µM: 90%
FLT3(D835H)
  remaining binding at 100 µM: 92%
EGFR(E746-A750del)
  remaining binding at 100 µM: 62%
MERTK
  remaining binding at 100 µM: 90%
MYLK
  remaining binding at 100 µM: 51%
DAPK3
  remaining binding at 100 µM: 84%
MYO3A
  remaining binding at 100 µM: 95%
EIF2AK1
  remaining binding at 100 µM: 75%
